Experimental findings from US9387213B2, “Small molecules inhibiting oncoprotein Myc” (Health Research, Inc., priority 2012, dated 2016) are described below.

The nature of one data set: in vitro. The note with it: microsomes, pH 7.4; for Percent Remaining 0 min: 0 h; for Percent Remaining 0 min / Percent Remaining 10 min / Percent Remaining 20 min / Percent Remaining 30 min / Percent Remaining 60 min: 1 μM; for Percent Remaining 30 min: 0.5 h; for Percent Remaining 60 min: 1 h. As to the method: Additionally, several of the N77A7 analogs were subjected to the test for the metabolic stability in human and mouse liver microsomes. Briefly, 1 μM of test compound was incubated with microsomal protein (human liver microsomes: 0.5 mg/mL; mouse liver microsomes 0.5 mg/mL) and buffer (100 mM potassium phosphate, pH 7.4, 5 mM magnesium chloride). The positive control was 5 μM testosterone. The reaction was equilibrated at 37 C in a shaking water bath for 3 to 5 minutes. After equilibration, an aliquot was removed and combined with 50/50 acetonitrile/water containing 0.1% formic acid and internal standard to terminate the reaction. 1 mM NADPH was immediately added and the tube was returned to the water bath. Five sample time points were taken (0, 10, 20, 30, and 60 minutes). Aliquots were removed and combined with 50/50 acetonitrile/water containing 0.1% formic acid and internal standard to terminate the reaction. The samples were mixed for 10 minutes and centrifuged. The supernatant from each sample was diluted (if necessary) and then transferred to vials for analysis by LC-MS/MS for the test compound and internal standard without calibration standards. The percent remaining at each time point was determined by the test compound's peak area response ratio versus the 0 minute sample.

The test system of a further data set is HO-c-Myc cells. The data set is described as follows: Secondary filter for Myc specificity: cell growth inhibition, methylene blue staining. The data set is classed as cell-based, rat. The protocol: (§1) FIG. 4 illustrates the myc specificity of tested compounds. Rat1a cells expressing c-myc, L-myc or N-myc or lacking any Myc (null) were treated for 72 h with a range of hit compound concentrations. The cells were then fixed and stained with methylene blue and the percentage of cells in the presence of compound compared to DMSO only control was calculated.
(§2) Validated hits were divided into classes when two or more compounds shared significant structural similarity. The ID50 for N-myc transactivation (the inhibitory dose resulting in 50% decrease in luciferase activity) for each hit was calculated from the dose-response N-myc responsive reporter assay. Compounds within each class were ranked by their ID50 for N-myc transactivation and the best compounds within each class were chosen for further studies. In addition, the best of the structurally unique compounds were also analyzed. A total of 46 hits were passed through a secondary filter designed to determine the specificity of the hits for Myc proteins. For this filter, we used a panel of cell lines derived from Rat1a cells (kindly provided by Michael Cole, Dartmouth University): HO-null-c-Myc deficient cells due to homologous recombination that express neither N-myc nor L-myc HO-c-Myc, HO-L-myc and HO-N-myc derived by retroviral transduction of the corresponding Myc genes into HO-null cells. Since each cell line expresses only a single Myc or no Myc family members, we could identify compounds that act through Myc family members as well as which Myc family members. […] The 18 Myc-specific compounds identified during the screening and filtering process are presented in Table 1 and represent distinct classes of molecules, including pyrazoles (e.g., N147A7, N47E10, N147G5), tetrazoles (e.g., N77A7) and 3-bromophenol (e.g., N4G6).

A further data set deals with HO-N-myc cells. The description is as above. The format is cell-based, rat. The protocol: as §1, §2
Data set [1] deals with HO15.19 cells reconstituted with exogenous C-MYC. The data set is described as follows: Inhibition of C-MYC-dependent proliferation, cell cycle distribution by FACS. The format is cell-based, rat. The note with it: 3 μM. As to the method:
In parallel, […] was evaluated for the ability to inhibit C-MYC-dependent proliferation in HO15.19 cells reconstituted with exogenous C-MYC. HO15.19 cells are the only cell line that is capable of continuous proliferation in the absence of any MYC protein expression, a feature that makes this line a reference in the field.
Background: In flow cytometry, cells or beads pass a laser one at a time.

One may read the half-life as the time needed for the level to fall by half in the phase considered. Low values mean fast loss, high ones slow loss. The term microsomal CLint denotes the rate of metabolic loss divided by the concentration. High values mean rapid turnover, low ones slow turnover.

For the compound `CCN(CC)c1ccc(/C=N/NC(=O)Cn2nnc(-c3ccccc3)n2)c(O)c1` [Compound N77A7], in “in vitro” (human), the “Percent Remaining 0 min” value turned out to be 100%, the “Percent Remaining 10 min” value amounted to 87%, the “Percent Remaining 20 min” value came out at 30% and the “Percent Remaining 30 min” value is given as 1− Percent. Besides, in “in vitro” (human), the “Percent Remaining 60 min” value is reported as under 1.0%, the half-life at 1 µM was determined as 13.1 min and the intrinsic metabolic clearance (microsomal CLint) at 1 μM was found to be 110 µL/min/mg. Further, in “in vitro” (mouse), the “Percent Remaining 0 min” value was found to be 100%, the “Percent Remaining 10 min” value is 25%, the “Percent Remaining 20 min” value is 8.9% and the “Percent Remaining 30 min” value turned out to be 4.5%. Further, in the data set “in vitro” (mouse), the “Percent Remaining 60 min” value is listed as under 1.0%, the half-life at 1 µM was 5.2 min and the microsomal CLint at 1 μM worked out at 270 µL/min/mg. Further, the “Myc Index C” value in the data set on HO-c-Myc cells (ID50 in HO-null cells divided by ID50 in HO-c-myc cells) is listed as 0.8. The IC50 in the data set with HO-c-Myc cells (Rattus norvegicus, cell growth inhibition, 72 h, methylene blue, read-out: ID50 HO-c-myc) worked out at 4.7 µM. Moreover, the “Myc Index N” value with HO-N-myc cells (ID50 in HO-null cells divided by ID50 in HO—N-myc cells) turned out to be 4.5. In the data set with HO-N-myc cells (Rattus norvegicus, cell growth inhibition, 72 h, methylene blue, read-out: ID50 HO—N-myc), the IC50 turned out to be 770 nM. In addition, the “HO15.19-C-MYC G2” value in data set [1] (percent of cells in G2 phase) is on record as 15.39%. In addition, the “HO15.19-C-MYC S” value in data set [1] (percent of cells in S phase) turned out to be 34.88%.
